Results reported in PubChem BioAssay (NCI).
Values joined by “and” are separate entries in the source; they are usually repeats but may differ in a detail not shown here. Equal entries are not always repeated.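 Each compound was tested at five concentrations against cells in 96-well plates for 48 hours. GI50 marks 50% less growth. TGI: total growth inhibition.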

Key:
Experiment in all cases: growth of human tumour cells (NCI), 48 h
[1] = system: NCI-H522 lung
[2] = system: SN12C renal
[3] = system: NCI-H226 lung
[4] = system: BT-549 breast
[5] = system: HCC-2998 colon
[6] = system: HOP-62 NSCLC
[7] = system: SK-MEL-28 melanoma
[8] = system: MDA-N
[9] = system: HT29 colon
[10] = system: PC-3 prostate
[11] = system: SNB-75 CNS
[12] = system: SK-MEL-2 melanoma

Row | SMILES | TGI [1] [µM] | TGI [2] | TGI [3] | TGI [4] | TGI [5] | TGI [6] | TGI [7] | TGI [8] | TGI [9] | TGI [10] | TGI [11] | TGI [12] | GI50 [5] | GI50 [7] | GI50 [10] | GI50 [12]
1 | CCOC1CN=C(Nc2cccc3ccccc23)S1 (centres undefined) | > 10 | > 10 µM | > 10 µM | > 10 µM | > 10 µM | > 10 µM | > 10 µM | > 10 µM | > 10 µM | > 10 µM | > 10 µM | > 10 µM |  |  |  | 
2 | C[C@H](C1CC(C)(O)C(C)(O)C(O)O1)[C@H]1CC[C@H]2[C@@H]3[C@@H]4O[C@@H]4[C@@]4(O)CC=CC(=O)[C@]4(C)[C@H]3CC[C@]12C (some centres undefined) | > 50 | > 50 µM | > 50 µM | > 50 µM | > 50 µM | > 50 µM | > 50 µM | > 50 µM | > 50 µM | > 50 µM | > 50 µM | > 50 µM |  |  |  | 
3 | CC1OC(OC2C(OC(=O)[C@]34CCC(C)(C)C[C@H]3C3=CC[C@@H]5[C@@]6(C)CC[C@H](OC7OC(C(=O)O)C(O)C(O)C7O)C(C)(C)[C@@H]6CC[C@@]5(C)[C@]3(C)C[C@H]4O)OCC(O)C2O)C(O)C(O)C1OC1OCC(O)C(O)C1O (some centres undefined) | 24.4 | 16 µM and 6.05 µM | 19.2 µM and 25.9 µM | 26.9 µM and 29.8 µM | 12.7 µM and 3.07 µM | 32.7 µM and 28.3 µM | 29.1 µM and 22 µM | 27.3 µM and 23.5 µM | 20.2 µM and 17 µM | 23.7 µM and 18.6 µM | 29.9 µM and 31.3 µM | 30.4 µM and 12.4 µM | 4.02 µM and 1.4 µM | 14.9 µM and 7.34 µM | 11.3 µM and 5.07 µM | 15.4 µM and 3.47 µM
4 | O=c1nc2n3c4c(cccc4nc-2c(=O)[nH]1)CCC3 | 71.4 | > 100 µM | > 100 µM | > 100 µM | > 100 µM | > 100 µM | > 100 µM | > 100 µM | > 100 µM | > 100 µM | > 100 µM | > 100 µM |  |  |  | 
5 | COC(=O)[C@]12CC3C=CC1N(C3)C(CBr)c1c2n(S(=O)(=O)c2ccccc2)c2ccccc12 (some centres undefined) | > 100 | > 100 µM | > 100 µM | > 100 µM | > 100 µM | > 100 µM | > 100 µM | > 100 µM | > 100 µM | > 100 µM | 86.2 µM | > 100 µM |  |  |  | 
6 | CC(C)[N+]([O-])(CCCNc1c2ccccc2nc2cccc([N+](=O)[O-])c12)C(C)C | 0.147 | 0.862 µM | 2.56 µM | 0.221 µM | 0.0227 µM | 1.77 µM | 0.175 µM | 0.137 µM | 1.93 µM | 11.5 µM | 0.629 µM | 1.24 µM |  |  |  | 
7 | N#C/C(=C\c1ccc(F)cc1)c1nc(-c2cc3ccccc3oc2=O)cs1 | 74.4 | > 100 µM | > 100 µM | 24.8 µM | > 100 µM | 25.7 µM | > 100 µM | > 100 µM | > 100 µM | > 100 µM | 95.9 µM | > 100 µM |  |  |  | 
8 | CC1=C(C(=O)OC2CC3CCC2(C)C3(C)C)C2Nc3ccccc3N(C)C2O1 (centres undefined) | 4.02 | 4.25 µM | 39.3 µM | 6.43 µM | 3.91 µM | 16.6 µM | 16 µM | 3.55 µM | 3.08 µM | 12.3 µM | 11.5 µM | 7.9 µM |  |  |  | 
9 | O=c1c2cc(-c3ccccc3)cnc2sn1-c1ccc(Br)cc1 | > 100 | > 100 µM | > 100 µM | > 100 µM | > 100 µM | > 100 µM | > 100 µM | > 100 µM | > 100 µM | > 100 µM | > 100 µM | > 100 µM |  |  |  | 
10 | CO/C=C/C=C(\C#N)C(=O)OC | > 100 | > 100 µM | > 100 µM | > 100 µM | > 100 µM | > 100 µM | > 100 µM | > 100 µM | > 100 µM | > 100 µM | > 100 µM | > 100 µM |  |  |  | 
